In US11458189B2, “Cytoprotective drugs” (BALMES TRANSPLANTATION, priority 2017, dated 2022):
Starred links: 1 amine or outer side, 2 acyl side, 3 side chain; linkers in the order of their positions; H or OH if unused. Positions of bridges follow the written chain, without caps; N, C: chain ends. Non-standard residues stand in square brackets, D forms with d. Residues, ends and D or L forms follow the SMILES beside them. *: point of attachment. hTyr(3S-OH,4S-OH,3'-OSO3H) = N[C@H](C(=O)O)[C@H](O)[C@@H](O)c1ccc(O)c(OS(=O)(=O)O)c1; Orn(4R-OH,5R-OH) = O=C([C@H](C[C@@H](O)[C@@H](O)N[*:3])N[*:1])[*:2]; Pro(3S-OH,4S-Me) = C[C@H]1CN[C@H](C(=O)O)[C@H]1O; X1 = CCCCCOc1ccc(-c2cc(-c3ccc(C(=O)*)cc3)no2)cc1; Gln(3R-OH) = NC(=O)C[C@@H](O)[C@H](N)C(=O)O; Hyp = O=C(O)[C@@H]1C[C@@H](O)CN1

Test system: Human Astrocytes (HA)
Assay: Oxygen and glucose deprivation followed by replenishment, cell survival (calcein AM), HA
Type: cell-based
Description: Anidulafungin and micafungin were tested on Human Renal Glomerular Endothelial Cells (HRGEC, Innoprot P10665), on Human Renal Proximal Tubular Epithelial Cells (HRPTEpiC, Innoprot P10662), on Human Astrocytes (HA, caltag SC-1800), on Human Cardiac Microvascular Endothelial Cells (HCMEC, Caltag SC-6000), on Human Hepatic Sinusoidal Endothelial Cells (HHSEC, Caltag SC-5000), on Rat Primary Kidney Glomerular Endothelial cells (Cellbiologics, RN-6014G) and on Bovine Brain Microvascular Endothelial Cells (BBMEC, Caltag SC-B100).
In a first phase, these isolated, purified and cryopreserved cells are thawed and multiplied according to the supplier's recommendations in T75 or T175 flasks pre-coated with 2 μg of fibronectin/[…] (CORNING) for HRGEC, HCMEC, HHSEC and BBMEC, or 2 μg poly-L-lysin/cm^2 (Caltag SC-0403) for HRPTEpiC and HA, or 15 mL/flask 175 cm^2 gelatin-based solution (Cellbiologics) in the presence of endothelial cell supplemented growth medium ECM (P60104, INNOPROT, Caltag, SC-1001) for HRGEC, HCMEC, HHSEC, RPKGEC or BBMEC, or astrocyte cell supplemented growth medium AM (Caltag SC-1801) for HA or epithelial cell supplemented growth medium EpiCM (P60106, INNOPROT) for HRPTEpiC, at 37° C. under 5% CO2 and saturated humidity until their confluency. They are then harvested by trypsinization according to the method described by the supplier for exactly 5 minutes and then reseeded in new flasks a maximum of three times.
To carry out the oxygen and glucose deprivation test followed by their replenishment, the cells will be seeded in 96-well black plates with transparent flat bottom (GREINER). Once a sufficient number of cells has been obtained to allow seeding of 2000 to 15000 cells per well of 96-well plates depending on the cell type, the cells are seeded in these 96-well plates previously coated with an extracellular matrix as listed above for the flasks. The cells are cultured for 5 to 8 days according to the cell type, in the presence of the same growth medium as in the flask as described above except for HRGEC and HRPTEpiC for which DMEM (DUTSCHER) with 1 g/L of supplemented glucose is used, at 37° C. under 5% CO2 and saturated humidity to obtain confluency.
On the first day of oxygen and glucose deprivation, (5th, 6th, 7th or 8th day of culture), the culture conditions are drastically changed. The medium of all plates is removed and replaced by DMEM (DUTSCHER) medium without glucose and supplemented only with 1% penicillin-streptomycin (DUTSCHER). Anidulafungin or micafungin dissolved in dimethyl sulfoxide (DMSO) is then added to each well at the desired concentration, resulting in a maximum of 1% DMSO, and the plates are placed under hypoxia at <1% 02 and 5% CO2 at 37° C. for 24 hours of culture. Each compound was tested in a concentration range.
After 24 hours, the growth medium is changed and replaced by a richer medium, DMEM (DUTSCHER) at 1 g/L glucose and 2% FBS (INNOPROT) and 1% penicillin-streptomycin (DUTSCHER). These media will have been pre-equilibrated at 37° C. in advance. The cells are then returned to culture at 37° C. under 20% 02 and 5% CO2 for 22h.
After 22 hours of reoxygenation, the potential protective effect of anidulafungin or micafungin is measured by a cell viability test using calcein AM (CORNING), which is a dye substrate. The calcein AM can easily cross the cell membrane of the viable cells. The AM ester groups mask the part of the molecule that chelates calcium. Once inside the cells, the (non-fluorescent) calcein AM is hydrolyzed to (fluorescent) calcein by endogenous esterases. The resulting calcein molecule binds to calcium inside the cell and remains trapped inside the cell. These molecules emit strong green fluorescence when subjected to […] of a particular wavelength (495 nm). Since dead cells lack esterase activity, only living cells are labelled.
This cell viability test is performed in two steps. […]

Question: Which results are given for `CCCCCOc1ccc(-c2cc(-c3ccc(C(=O)N[C@H]4C[C@@H](O)[C@@H](O)NC(=O)[C@@H]5[C@@H](O)[C@@H](C)CN5C(=O)[C@H]([C@H](O)CC(N)=O)NC(=O)[C@H]([C@H](O)[C@@H](O)c5ccc(O)c(OS(=O)(=O)O)c5)NC(=O)[C@@H]5C[C@@H](O)CN5C(=O)[C@H]([C@@H](C)O)NC4=O)cc3)no2)cc1` [Micafungin, {5-[(1S,2S)-2-[(3S,6S,9S,11R,15S,18S,20R,21R,24S,25S,26S)-3-[(1R)-2-carbamoyl-1-hydroxyethyl]-11,20,21,25-tetrahydroxy-15-[(1R)-1-hydroxyethyl]-26-methyl-2,5,8,14,17,23-hexaoxo-18-[(4-{5-[4-(pentyloxy)phenyl]-1,2-oxazol-3-yl}benzene)amido]-1,4,7,13,16,22-hexaazatricyclo[22.3.0.0]heptacosan-6-yl]-1,2-dihydroxyethyl]-2-hydroxyphenyl}oxidanesulfonic acid] (X1-[Orn(4R-OH,5R-OH)]T[Hyp][hTyr(3S-OH,4S-OH,3'-OSO3H)][Gln(3R-OH)][Pro(3S-OH,4S-Me)]; lactam 1-C)?
Answer: Globalfluo assay 1 ([Micafungin] log μM 0): 11119980 arbitrary units; Globalfluo assay 2 ([Micafungin] log μM 0): 10122420 arbitrary units; Globalfluo assay 3 ([Micafungin] log μM 0): 9942897 arbitrary units; Mean globalfluo ([Micafungin] log μM 0): 10395099 arbitrary units; Survival rate (%) ([Micafungin] log μM 0): 2%; Globalfluo assay 1 ([Micafungin] log μM 0.4771213): 10184240 arbitrary units; Globalfluo assay 2 ([Micafungin] log μM 0.4771213): 11122790 arbitrary units; Globalfluo assay 3 ([Micafungin] log μM 0.4771213): 12211830 arbitrary units; Mean globalfluo ([Micafungin] log μM 0.4771213): 11172953 arbitrary units; Survival rate (%) ([Micafungin] log μM 0.4771213): 6%; Globalfluo assay 1 ([Micafungin] log μM 0.7781513): 12145620 arbitrary units; Globalfluo assay 2 ([Micafungin] log μM 0.7781513): 12627660 arbitrary units; Globalfluo assay 3 ([Micafungin] log μM 0.7781513): 12964960 arbitrary units; Mean globalfluo ([Micafungin] log μM 0.7781513): 12579413 arbitrary units; Survival rate (%) ([Micafungin] log μM 0.7781513): 14%; Globalfluo assay 1 ([Micafungin] log μM 0.90309): 12128260 arbitrary units; Globalfluo assay 2 ([Micafungin] log μM 0.90309): 10787240 arbitrary units; Globalfluo assay 3 ([Micafungin] log μM 0.90309): 13139350 arbitrary units; Mean globalfluo ([Micafungin] log μM 0.90309): 12018283 arbitrary units; Survival rate (%) ([Micafungin] log μM 0.90309): 11%; Globalfluo assay 1 ([Micafungin] log μM 1): 15956640 arbitrary units; Globalfluo assay 2 ([Micafungin] log μM 1): 14291510 arbitrary units; Globalfluo assay 3 ([Micafungin] log μM 1): 16904820 arbitrary units; Mean globalfluo ([Micafungin] log μM 1): 15717657 arbitrary units; Survival rate (%) ([Micafungin] log μM 1): 32%; Globalfluo assay 1 ([Micafungin] log μM 1.079181): 12974980 arbitrary units; Globalfluo assay 2 ([Micafungin] log μM 1.079181): 13357070 arbitrary units; Globalfluo assay 3 ([Micafungin] log μM 1.079181): 13693180 arbitrary units; Mean globalfluo ([Micafungin] log μM 1.079181): 13341743 arbitrary units; Survival rate (%) ([Micafungin] log μM 1.079181): 18%; Globalfluo assay 1 ([Micafungin] log μM 1.176091): 15116230 arbitrary units; Globalfluo assay 2 ([Micafungin] log μM 1.176091): 14430130 arbitrary units; Globalfluo assay 3 ([Micafungin] log μM 1.176091): 15740520 arbitrary units; Mean globalfluo ([Micafungin] log μM 1.176091): 15095627 arbitrary units; Survival rate (%) ([Micafungin] log μM 1.176091): 28%; Globalfluo assay 1 ([Micafungin] log μM 1.30103): 11900350 arbitrary units; Globalfluo assay 2 ([Micafungin] log μM 1.30103): 13780590 arbitrary units; Globalfluo assay 3 ([Micafungin] log μM 1.30103): 15553770 arbitrary units; Mean globalfluo ([Micafungin] log μM 1.30103): 13744903 arbitrary units; Survival rate (%) ([Micafungin] log μM 1.30103): 21%; Globalfluo assay 1 ([Micafungin] log μM 1.477121): 14577460 arbitrary units; Globalfluo assay 2 ([Micafungin] log μM 1.477121): 14402140 arbitrary units; Globalfluo assay 3 ([Micafungin] log μM 1.477121): 13825080 arbitrary units; Mean globalfluo ([Micafungin] log μM 1.477121): 14268227 arbitrary units; Survival rate (%) ([Micafungin] log μM 1.477121): 24%; Globalfluo assay 1 ([Micafungin] log μM −0.5228788): 9708125 arbitrary units; Globalfluo assay 2 ([Micafungin] log μM −0.5228788): 10748420 arbitrary units; Globalfluo assay 3 ([Micafungin] log μM −0.5228788): 10103750 arbitrary units; Mean globalfluo ([Micafungin] log μM −0.5228788): 10186765 arbitrary units; Survival rate (%) ([Micafungin] log μM −0.5228788): 1%; Globalfluo assay 1 ([Micafungin] log μM −1): 12091240 arbitrary units; Globalfluo assay 2 ([Micafungin] log μM −1): 10337500 arbitrary units; Globalfluo assay 3 ([Micafungin] log μM −1): 9946542 arbitrary units; Mean globalfluo ([Micafungin] log μM −1): 10791761 arbitrary units; Survival rate (%) ([Micafungin] log μM −1): 4%; Globalfluo assay 1 ([Micafungin] log μM −2): 9536623 arbitrary units; Globalfluo assay 2 ([Micafungin] log μM −2): 9993250 arbitrary units; Globalfluo assay 3 ([Micafungin] log μM −2): 10712930 arbitrary units; Mean globalfluo ([Micafungin] log μM −2): 10080934 arbitrary units; Survival rate (%) ([Micafungin] log μM −2): 0%
